# Laboratory results: PMC9458217, “Synthesis and Biological Evaluation of Cassane Diterpene (5α)-Vuacapane-8(14), 9(11)-Diene and of Some Related Compounds” (Molecules, 2022)
# Several values for one entry are separate records, joined by “and”; a condition that tells them apart may be missing. Equal values may be shown once. Read-outs that look alike come from different tables or passages of the source.
# What was measured:
# [1] = system: HT29 cells; assay: Annexin V-FITC/PI flow cytometry (apoptosis) in HT29 cells; type: cell-based, human; details: 72 h
# Method: Most currently used anticancer drugs trigger the apoptosis process as a key target and induce it in cancer cells. Phosphatidylserine (PS) externalization is a typical characteristic of early phase apoptosis. […].
# As such wise, apoptosis was assessed by flow cytometry using a FACScan (fluorescence-activated cell sorter) flow cytometer (Coulter Corporation, Hialeah, FL, USA). For this assay, 5 × 10^4 HT29 cells were plated in 24-well plates with 1.5 mL of medium and incubated for 24 h. […] The cells were collected and resuspended in a binding buffer (10 mM HEPES/NaOH, pH 7.4, 140 mM NaCl, 2.5 mM CaCl2). At room temperature in darkness, Annexin V-FITC conjugate (1 μg/mL) was then added and incubated for 15 min. Cells were stained with 5 μL of 1 mg/mL PI solution, just before the analysis. In each experiment, approximately 10 × 10^3 cells were analyzed, and the experiment was duplicated twice.
# [2] = system: HT29 human colorectal adenocarcinoma cell line; assay: MTT cytotoxicity on HT29 cells; details: HT-29, 72 h
# Method: (§2) These studies were performed using the MTT assay, based on formazan dye formation and expressed as a percentage with respect to untreated control cells (100% of cell metabolism).
# (§3) The effect of compounds on the cell viability was determined by the MTT method [27] (Sigma, St. Louis, MO, USA). The cytotoxicity of the compounds was detected by measuring the absorbance of MTT dye staining of cells with metabolism capacity. […] Finally, after 72 h, 100 μL of MTT solution (0.5 mg/mL) in 50% of PBS and 50% of the medium was added to each well. After 1.5 h of incubation, formazan was re-suspended in 100 μL of DMSO, and each concentration was tested in triplicate.
# (§4) Experimental cytotoxicity data were fitted to a sigmoidal function (y = ymax/ (x/a)^−b) by non-linear regression. […] All shown data are representative of at least two independent experiments performed in triplicate. All quantitative data were summarized as the means ± standard deviation (SD).
# [3] = system: RAW 264.7 cells, activated by LPS; assay: Cell cycle distribution of LPS-activated RAW 264.7 cells, flow cytometry with PI; type: cell-based, murine
# Method: The cell-cycle distribution was analyzed by flow cytometry with propidium iodide (IP) staining (Figure 3). Significant growth arrest of the cell cycle in LPS-induced RAW 264.7 cells produced 100% detention in the G0/G1 phase (positive control) compared to the negative control (49.6%). After incubation with compound 20, the percentage of cells found in the G0/G1 phase was 29%, 32%, and 36%, respectively, at the assayed concentrations. Similar results were found for compound 16 (35%, 38%, and 39%) after 72 h of incubation at the same concentrations. This decrease was accompanied by the consequent increase in the number of cells in the S phase: 70%, 68%, and 56%, respectively, for compound 20, and 63%, 61%, and 59% for compound 16. […] This recovery of the cell cycle with respect to control cells (only LPS treated) could be a consequence of the anti-inflammatory effect produced by the tested compounds, which increase cell division, rescuing RAW 264.7 cells from LPS-induced arrest during their monocyte/macrophage differentiation process.
# DNA content is directly proportional to the PI fluorescence; it allows us to determine the percentage of cells in each cell cycle phase. Using a fluorescence-activated cell sorter (FACS) at 488 nm in an Epics XL flow cytometer (Coulter Corporation, Hialeah, FL, USA), cell subpopulations could be visualized with different DNA contents. […] By treating cells only with LPS, the positive control was performed. However, the negative control was prepared, exposing cells […]. After treatment, cells were washed twice with PBS and trypsine solution, then resuspended in TBS 1X (10 Mm Tris, 150 Mm NaCl) and then Vindelov buffer (100 mM Tris, 100 Mm NaCl, 10 mg/mL Rnasa, 1 mg/mL PI, pH 8) was added. The samples were placed for 15 min on ice. Immediately before FACS analysis, cells were stained with 20 μL of 1 mg/mL PI solution. Data were analyzed to determine the percentage of cells in each cell cycle phase (G0/G1, S, and G2/M).
# [4] = system: colon adenocarcinoma HT29 cells; assay: Mitochondrial membrane potential, Rh123/PI flow cytometry in HT29 cells; type: cell-based, human; details: HT29, IC50 and IC80 concentrations, 72 h
# Description: The apoptotic effects of anticancer agents can occur through the activation of two major apoptotic pathways: intrinsic and extrinsic apoptotic pathways, Thus, the study of the loss of the mitochondrial membrane potential (MMP) of tumor cells can provide information on the activation mechanism and the apoptotic pathway induced in response to anticancer compounds. When the mitochondria undergo disruption and are involved in the loss of MMP, the activation is then intrinsic (mitochondrial).
# The electrochemical gradient across the mitochondrial membrane was studied by analytical flow cytometry using dihydrorhodamine (DHR). […] The medium renewal was achieved by adding fresh medium with DHR to a final concentration of […]. […] The fluorescence intensity was measured using a FACScan flow cytometer (fluorescence-activated cell sorter). The experiments were performed three times with two replicates per assay.
# [5] = system: HT29 colon adenocarcinoma cells; assay: HT29 cell cycle arrest and distribution, flow cytometry with PI; type: cell-based, human; details: for decrease in S phase cell percentage / increase of G0/G1 phase population with respect to untreated control: 72 h
# Description: Flow cytometry was used to measure DNA ploidy and to determine possible alterations in cell cycle profiles. […]. […] […]. Changes in the G2/M phase were less significant. Although changes in the cell cycle were observed, they were of a lower magnitude and insignificant for compound 20. Therefore, those changes could be produced by the apoptotic process activation and not by cytostatic or differentiation process induction. […]. Further assays will be necessary to asseverate this point.
# The method was performed by flow cytometry after propidium iodide staining (PI). […]. After that, cells were stored on ice and were stained with 20 µL of 1 mg/mL PI solution just before measurement. Approximately 10 × 10^3 cells were analysed in each experiment. The experiments were performed three times with two replicates per assay. Finally, the samples were analysed using a flow cytometer and the number of cells in each stage of the cell cycle was estimated by fluorescence-associated cell sorting (FACS) at 488 nm in an Epics XL flow cytometer (Coulter Corporation, Hialeah, FL, USA).
# [6] = system: HepG2 human hepatocarcinome cell-line; assay: MTT cytotoxicity on HepG2 cells; details: HepG2, 72 h
# Method: as §2, §3, §4
# [7] = system: RAW 264.7 monocyte/macrophage murine cells; assay: MTT cytotoxicity on RAW 264.7 cells; type: cell-based; details: Mus musculus
# Method: MTT is transformed to formazan in cells with metabolism capacity (viable cells), as the number of viable cells is proportional to formazan concentration; this assay was used to determine the cytotoxicity of the compounds.
# In all experiments, subconfluent monolayer cells were used.
# The effect of compounds on the cell viability was determined by the MTT method (Sigma, St. Louis, MO, USA). The cytotoxicity of the compounds was detected by measuring the absorbance of MTT dye staining of cells with metabolism capacity. […] Finally, after 72 h, 100 μL of MTT solution (0.5 mg/mL) in 50% of PBS and 50% of the medium was added to each well. After 1.5 h of incubation, formazan was re-suspended in 100 μL of DMSO, and each concentration was tested in triplicate.
# (§1) Experimental cytotoxicity data were fitted to a sigmoidal function (y = ymax/ (x/a)^−b) by non-linear regression. […] Similar analyses were performed to obtain the IC50 of NO production (IC50 NO). All shown data are representative of at least two independent experiments performed in triplicate. All quantitative data were summarized as the means ± standard deviation (SD).
# [8] = system: LPS-stimulated RAW 264.7 murine macrophage cells; assay: Inhibition of NO production (nitrite, Griess reaction) in LPS-stimulated RAW 264.7 cells; type: cell-based; details: LPS-activated RAW 264.7, 72 h of incubation
# Method: The activation of the inflammatory process induces nitric oxide, NO, released as a second messenger. NO production can be used as the main indicator to assess inflammatory activity, which can be measured using nitrite (NO^2–) quantification (proportional to the released NO), determined through the Griess reaction. […] Inhibition percentages were calculated with respect to the increase between positive control (only LPS treated control cells) and negative control (untreated control cells).
# The absorbance was referred to nitrite standard curve to determine the concentration of nitrite in the supernatant of each experimental sample. The percentage of NO production was determined, assigning 100% at the increase between negative control (untreated cells) and positive control (cells only treated with 10 μg/mL of LPS).
# as §1
# [9] = system: Micrococcus flavus; set-up: method as in PMID 17418286; details: cited from earlier work
# [10] = system: Staphylococcus aureus; set-up: method as in PMID 17418286; details: cited from earlier work
# [11] = system: LPS-induced J774.A1 macrophage cells; set-up: method as in PMID 34990974; details: 50 μM, natural compounds; cited from earlier work
# [12] = system: NO; set-up: method as in PMID 34990974; details: read-out: NO inhibition IC50; cited from earlier work
structure (smiles),measurement,setting,value
Cc1c(C=O)c(O)cc2c1CC[C@H]1C(C)(C)CCC[C@]21C [Compound 20],early apoptosis,"[1]; HT29, IC50 concentration",27.57%
same,late apoptosis,"[1]; HT29, IC50 concentration",49.97%
same,total apoptosis (early plus late apoptotic cells),"[1]; HT29, IC50 concentration",76.25%
same,early apoptosis,"[1]; HT29, IC80 concentration",41.40%
same,late apoptosis,"[1]; HT29, IC80 concentration",45.40%
same,total apoptosis (early plus late apoptotic cells),"[1]; HT29, IC80 concentration",80% and 86.8%
same,IC50,"[2]; HT29, MTT, 72 h",~3 mg/L
same,cells in the S phase,"[3]; ¼ IC50, 72 h",70%
same,percentage of cells in the G0/G1 phase,"[3]; ¼ IC50, 72 h, LPS control 100%, negative control 49.6%",29%
same,changes in the G2/M phase,"[3]; ¼, ½ and ¾ IC50, 72 h",not significant
same,cells in the S phase,"[3]; ½ IC50, 72 h",68%
same,percentage of cells in the G0/G1 phase,"[3]; ½ IC50, 72 h",32%
same,cells in the S phase,"[3]; ¾ IC50, 72 h",56%
same,percentage of cells in the G0/G1 phase,"[3]; ¾ IC50, 72 h",36%
same,"changes in mitochondrial membrane potential (MMP), Rh123 staining",[4],did not produce any changes in MMP
same,cell cycle arrest at the G0/G1 phase (cell percentage),"[5]; HT29, IC50 concentration",63.6%
same,decrease in S phase cell percentage,"[5]; HT29, IC50 concentration",6%
same,increase of G0/G1 phase population with respect to untreated control,"[5]; HT29, IC50 concentration",6%
same,cell cycle arrest at the G0/G1 phase (cell percentage),"[5]; HT29, IC80 concentration",66.6%
same,decrease in S phase cell percentage,"[5]; HT29, IC80 concentration",10.7%
same,increase of G0/G1 phase population with respect to untreated control,"[5]; HT29, IC80 concentration",9%
same,IC50,[6],8.41 ± 0.3 mg/L
same,IC20,"[7]; RAW264.7, RAW 264.7, MTT, 72 h of incubation, 20% cell viability inhibition, read-out: IC20",7.86 ± 3.97 mg/L
same,IC80,"[7]; RAW264.7, RAW 264.7, MTT, 72 h of incubation, 80% cell viability inhibition, read-out: IC80",9.35 ± 0.95 mg/L
same,IC50,"[7]; RAW264.7, RAW 264.7, MTT, 72 h of incubation, read-out: IC50",8.34 ± 2.51 mg/L
same,IC50 NO,[8],2.98 ± 0.04 mg/L
same,IC50,"[8]; Mus musculus, RAW264.7, 72 h",5.71 ± 0.14 mg/L
COC(=O)[C@@]1(C)CCC[C@]2(C)c3cc4occc4c(C)c3CC[C@@H]12 [benthaminin 1],MIC,[9],47.8 µM
same,MIC,[10],47.8 µM
"Cc1c2c(cc3c1CCC1C(C)(C)CCCC31C)OC(O)C2 (centres unmarked) [Compound 6, pterolobirin G]",total apoptosis (early plus late apoptotic cells),"[1]; HT29, IC50 concentration",18.30%
same,early apoptosis,"[1]; HT29, IC80 concentration",48.83%
same,late apoptosis,"[1]; HT29, IC80 concentration",23%
same,total apoptosis (early plus late apoptotic cells),"[1]; HT29, IC80 concentration",80%
same,IC50,[2],~3 mg/L
same,"changes in mitochondrial membrane potential (MMP), Rh123 staining",[4],did not produce any changes in MMP
same,inhibition of NO production,[11],did not show any significant inhibition of NO production
same,decrease in S phase cell percentage,"[5]; HT29, IC50 concentration",17.3%
same,increase of G0/G1 phase population with respect to untreated control,"[5]; HT29, IC50 concentration",13.6%
same,decrease in S phase cell percentage,"[5]; HT29, IC80 concentration",30.36%
same,increase of G0/G1 phase population with respect to untreated control,"[5]; HT29, IC80 concentration",29%
same,IC20,"[7]; RAW264.7, 72 h",12.7 ± 0.3 mg/L
same,IC50,"[7]; RAW264.7, 72 h",15 ± 0.32 mg/L
same,IC80,"[7]; RAW264.7, 72 h",18.6 ± 0.45 mg/L
CC(=O)O[C@H]1Cc2c(cc3occc3c2C)[C@@]2(C)CCCC(C)(C)[C@H]12 [sucutinirane C],IC50,[12],24.4 ± 1.34 µM
